Experimental data reported in patent US20100267561A1, “HERBICIDAL PYRIDAZINONE DERIVATIVES” (priority 2007, published 2010).
Read-outs that look alike come from different tables or passages of the source.

Columns and labels:
Assay in all cases: Test B pre-/postemergence plant response
Type in all cases: in vivo
[1] = system: johnsongrass (Sorghum halepense); details: Sorghum halepense, pre-emergence, Preemergence, read-out: Plant response rating, Johnsongrass
Procedure, shortened: (§1)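 Preemergence and postemergence (plants 2-18 cm, 1- to 4-leaf stage) applications used test chemicals in a non-phytotoxic solvent with surfactant. Plants were held in a greenhouse 13 to 15 days, then rated visually against controls on a 0-100 scale (0 no effect, 100 complete control).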

[2] = system: kochia (Kochia scoparia)
Procedure, shortened: as §1

[3] = system: large crabgrass (Digitaria sanguinalis); details: Digitaria sanguinalis, read-out: Plant response rating, Crabgrass, Large; for pest or weed control at 31 g/ha: 31 g ai/ha, 100 complete control; for pest or weed control at 62 g/ha: 62 g ai/ha; for pest or weed control at 62 g/ha / pest or weed control at 125 g/ha / pest or weed control at 250 g/ha: scale 0 to 100; for pest or weed control at 125 g/ha: 125 g ai/ha; for pest or weed control at 250 g/ha: 250 g ai/ha
Procedure, shortened: as §1

[4] = system: velvetleaf (Abutilon theophrasti); details: Abutilon theophrasti, read-out: Plant response rating, Velvetleaf; for pest or weed control at 31 g/ha: 31 g ai/ha, 100 complete control; for pest or weed control at 62 g/ha: 62 g ai/ha; for pest or weed control at 62 g/ha / pest or weed control at 125 g/ha / pest or weed control at 250 g/ha: scale 0 to 100; for pest or weed control at 125 g/ha: 125 g ai/ha; for pest or weed control at 250 g/ha: 250 g ai/ha
Procedure, shortened: as §1

[5] = system: wild oat (Avena fatua); details: Avena fatua, read-out: Plant response rating, Oat, Wild; for pest or weed control at 31 g/ha: 31 g ai/ha, 100 complete control; for pest or weed control at 62 g/ha: 62 g ai/ha; for pest or weed control at 62 g/ha / pest or weed control at 125 g/ha / pest or weed control at 250 g/ha: scale 0 to 100; for pest or weed control at 125 g/ha: 125 g ai/ha; for pest or weed control at 250 g/ha: 250 g ai/ha
Procedure, shortened: as §1

[6] = system: woolly cupgrass (Eriochloa villosa); details: Eriochloa villosa, read-out: Plant response rating, Cupgrass, Woolly; for pest or weed control at 31 g/ha: 31 g ai/ha, 100 complete control; for pest or weed control at 62 g/ha: 62 g ai/ha; for pest or weed control at 62 g/ha / pest or weed control at 125 g/ha / pest or weed control at 250 g/ha: scale 0 to 100; for pest or weed control at 125 g/ha: 125 g ai/ha; for pest or weed control at 250 g/ha: 250 g ai/ha
Procedure, shortened: as §1

[7] = system: yellow nutsedge (Cyperus esculentus); details: Cyperus, read-out: Plant response rating, Nutsedge, Yellow; for pest or weed control at 31 g/ha: 31 g ai/ha, 100 complete control; for pest or weed control at 62 g/ha: 62 g ai/ha; for pest or weed control at 250 g/ha: 250 g ai/ha
Procedure, shortened: as §1

[8] = post-emergence, Postemergence, scale 0 to 100, 0 no effect
[9] = pre-emergence, Preemergence, 0 to 100 scale, 0 no effect
[10] = post-emergence, Postemergence, scale 0 to 100
[11] = pre-emergence, Preemergence, scale 0 to 100

Cc1cc(-c2ccc(C(F)(F)F)cc2)nn1-c1c(O)cnn(C)c1=O [Compound 1, 5-hydroxy-2-methyl-4-[5-methyl-3-[4-(trifluoromethyl)phenyl]-1H-pyrazol-1-yl]-3(2H)-pyridazinone]
90%: pest or weed control at 31 g/ha ([1]; 31 g ai/ha, 0 to 100 scale, 0 no effect, 100 complete control) | pest or weed control at 62 g/ha ([3]; post-emergence, Postemergence) | pest or weed control at 31 g/ha [5, 8] | pest or weed control at 125 g/ha ([5]; pre-emergence, Preemergence)
98%: pest or weed control at 31 g/ha [3, 9] | pest or weed control at 250 g/ha ([5]; pre-emergence, Preemergence)
80%: pest or weed control at 31 g/ha [3, 8]
0%: pest or weed control at 31 g/ha [4, 8] | pest or weed control at 62 g/ha ([4]; post-emergence, Postemergence) | pest or weed control at 125 g/ha ([4]; post-emergence, Postemergence) | pest or weed control at 31 g/ha [4, 9] | pest or weed control at 62 g/ha ([4]; pre-emergence, Preemergence) | pest or weed control at 125 g/ha ([4]; pre-emergence, Preemergence) | pest or weed control at 31 g/ha [7, 8] | pest or weed control at 62 g/ha [7, 10] | pest or weed control at 125 g/ha ([7]; post-emergence, Postemergence, 125 g ai/ha, scale 0 to 100) | pest or weed control at 250 g/ha [7, 10] | pest or weed control at 31 g/ha [7, 9] | pest or weed control at 62 g/ha [7, 11] | pest or weed control at 250 g/ha [7, 11]
50%: pest or weed control at 250 g/ha ([4]; post-emergence, Postemergence) | pest or weed control at 250 g/ha ([4]; pre-emergence, Preemergence)
20: Plant response rating, Kochia ([2]; Postemergence, 250 g ai/ha, scale 0 to 100) | Plant response rating, Kochia ([2]; Preemergence, 125 g ai/ha, scale 0 to 100)
0: Plant response rating, Kochia ([2]; Postemergence, 31 g ai/ha, scale 0 to 100, 0 no effect, 100 complete control) | Plant response rating, Kochia ([2]; Postemergence, 62 g ai/ha, scale 0 to 100) | Plant response rating, Kochia ([2]; Postemergence, 125 g ai/ha, scale 0 to 100) | Plant response rating, Kochia ([2]; Preemergence, 62 g ai/ha, scale 0 to 100)
95%: pest or weed control at 62 g/ha ([1]; 62 g ai/ha, scale 0 to 100) | pest or weed control at 31 g/ha [6, 8]
100%: pest or weed control at 125 g/ha ([1]; 125 g ai/ha, scale 0 to 100) | pest or weed control at 250 g/ha ([1]; 250 g ai/ha, scale 0 to 100) | pest or weed control at 125 g/ha ([3]; post-emergence, Postemergence) | pest or weed control at 250 g/ha ([3]; post-emergence, Postemergence) | pest or weed control at 62 g/ha ([3]; pre-emergence, Preemergence) | pest or weed control at 125 g/ha ([3]; pre-emergence, Preemergence) | pest or weed control at 250 g/ha ([3]; pre-emergence, Preemergence) | pest or weed control at 62 g/ha ([5]; post-emergence, Postemergence) | pest or weed control at 125 g/ha ([5]; post-emergence, Postemergence) | pest or weed control at 250 g/ha ([5]; post-emergence, Postemergence) | pest or weed control at 62 g/ha ([6]; post-emergence, Postemergence) | pest or weed control at 125 g/ha ([6]; post-emergence, Postemergence) | pest or weed control at 250 g/ha ([6]; post-emergence, Postemergence) | pest or weed control at 62 g/ha ([6]; pre-emergence, Preemergence) | pest or weed control at 125 g/ha ([6]; pre-emergence, Preemergence) | pest or weed control at 250 g/ha ([6]; pre-emergence, Preemergence)
85%: pest or weed control at 62 g/ha ([5]; pre-emergence, Preemergence) | pest or weed control at 31 g/ha [6, 9]
60%: pest or weed control at 31 g/ha [5, 9]
